Test results as given in the supplement of paper PMC13380429.

Columns and labels:
[1] = system: A549-ACE2 infected with SARS-CoV-2; assay: cell count relative to DMSO; higher = less toxic; conditions: 24 h
HepG2 [2] = assay: cell viability relative to DMSO; higher = less toxic; conditions: 72 h
U2OS [3] = assay: as above; conditions: 72 h
Vero E6 [4] = assay: as above; conditions: 72 h
Calu-3 [5] = assay: as above; conditions: 72 h
Caco-2 [6] = assay: as above; conditions: 72 h
[7] = system: A549-ACE2 infected with SARS-CoV-2; assay: morphology score (similarity to uninfected cells); higher = more like uninfected cells; conditions: 24 h
HepG2 [8] = assay: drug sensitivity score (DSS) for viability; higher = more toxic; extreme values may be limits of the assay; conditions: 72 h
U2OS [9] = assay: as above; conditions: 72 h
Vero E6 [10] = assay: as above; conditions: 72 h
Calu-3 [11] = assay: as above; conditions: 72 h
Caco-2 [12] = assay: as above; conditions: 72 h
A549-ACE2 = assay: drug-induced phospholipidosis relative to tamoxifen; higher = more phospholipidosis; conditions: 24 h
U2OS [13] = assay: relative viability EC50 (midpoint between 100% and the lowest measured viability); higher = less toxic; conditions: 72 h
Caco-2 [14] = assay: as above; conditions: 72 h
[15] = system: A549-ACE2 infected with SARS-CoV-2; assay: SARS-CoV-2 infection rate relative to DMSO; higher = more infection; conditions: 24 h
HepG2 [16] = assay: relative viability EC50 (midpoint between 100% and the lowest measured viability); higher = less toxic; conditions: 72 h
Vero E6 [17] = assay: as above; conditions: 72 h
Calu-3 [18] = assay: as above; conditions: 72 h

O=C1NC(=O)C(c2cnc3ccccn23)=C1c1cn2c3c(cc(F)cc13)CN(C(=O)N1CCCCC1)CC2
Conditions	SARS-CoV-2 infection rate [%]	cell count [%]	cell viability [%]	drug-induced phospholipidosis [%]	morphology score
A549-ACE2, 0.3 µM	–	–	–	-5.51	–
A549-ACE2, 0.833333 µM	–	–	–	-3	–
A549-ACE2, 3.33333 µM	–	–	–	-2.04	–
A549-ACE2, 6.66667 µM	–	–	–	-0.59	–
A549-ACE2, 10 µM	–	–	–	12.5	–
Caco-2 [6], 1 nM	–	–	104	–	–
Caco-2 [6], 10 nM	–	–	109	–	–
Caco-2 [6], 100 nM	–	–	87.3	–	–
Caco-2 [6], 1000 nM	–	–	70.5	–	–
Caco-2 [6], 10000 nM	–	–	47.3	–	–
Calu-3 [5], 1 nM	–	–	101	–	–
Calu-3 [5], 10 nM	–	–	111	–	–
Calu-3 [5], 100 nM	–	–	80	–	–
Calu-3 [5], 1000 nM	–	–	68.1	–	–
Calu-3 [5], 10000 nM	–	–	61	–	–
HepG2 [2], 1 nM	–	–	121	–	–
HepG2 [2], 10 nM	–	–	113	–	–
HepG2 [2], 100 nM	–	–	109	–	–
HepG2 [2], 1000 nM	–	–	94	–	–
HepG2 [2], 10000 nM	–	–	56.7	–	–
U2OS [3], 1 nM	–	–	108	–	–
U2OS [3], 10 nM	–	–	112	–	–
U2OS [3], 100 nM	–	–	99.5	–	–
U2OS [3], 1000 nM	–	–	94.2	–	–
U2OS [3], 10000 nM	–	–	80.3	–	–
Vero E6 [4], 1 nM	–	–	105	–	–
Vero E6 [4], 10 nM	–	–	105	–	–
Vero E6 [4], 100 nM	–	–	95.9	–	–
Vero E6 [4], 1000 nM	–	–	66.1	–	–
Vero E6 [4], 10000 nM	–	–	77.9	–	–
[1], 0.3 µM	–	79	–	–	–
[1], 3 µM	–	75	–	–	–
[1], 10 µM	–	72	–	–	–
[1], 30 µM	–	50	–	–	–
[7], 0.3 µM	–	–	–	–	-0.23
[7], 3 µM	–	–	–	–	-0.14
[7], 10 µM	–	–	–	–	-0.05
[7], 30 µM	–	–	–	–	0.41
[15], 0.3 µM	114	–	–	–	–
[15], 3 µM	108	–	–	–	–
[15], 10 µM	92	–	–	–	–
[15], 30 µM	49	–	–	–	–

Conditions	drug sensitivity score	relative viability EC50 [nM]
Caco-2 [12]	6.7	–
Caco-2 [14]	–	624
Calu-3 [11]	9.5	–
HepG2 [8]	3.2	–
U2OS [9]	1.3	–
U2OS [13]	–	> 10000
Vero E6 [10]	6.6	–

O=C(/C=C/c1cccnc1)NCCCCC1CCN(C(=O)c2ccccc2)CC1 [FK-866]
cell viability [%]
Conditions	Caco-2 [6]	Calu-3 [5]	HepG2 [2]	U2OS [3]	Vero E6 [4]
1 nM	93.7	110	84.6	97.8	106
10 nM	65	112	57.9	98.1	106
100 nM	5.8	7	16.6	0	2.7
1000 nM	5	5.1	11.3	-0.5	1.2
10000 nM	5.6	4.6	11.7	0	1.9

Conditions	drug sensitivity score	relative viability EC50 [nM]
Caco-2 [12]	33.2	–
Caco-2 [14]	–	13.4
Calu-3 [11]	28.1	–
Calu-3 [18]	–	39.2
HepG2 [8]	31.9	–
HepG2 [16]	–	9.2
U2OS [9]	30.7	–
U2OS [13]	–	30.3
Vero E6 [10]	29.4	–
Vero E6 [17]	–	36.1

c1ccc(OCc2ccc(CCCN3CCOCC3)cc2)cc1 [fomocaine]
cell viability [%]
Conditions	Caco-2 [6]	Calu-3 [5]	HepG2 [2]	U2OS [3]	Vero E6 [4]
1 nM	87.8	110	96.7	93.7	94.9
10 nM	92.8	101	106	94.6	95.7
100 nM	100	108	97.1	98.5	93.1
1000 nM	93.4	96.3	101	100	100
10000 nM	97.1	113	90.4	101	100

Conditions	drug sensitivity score	relative viability EC50 [nM]
Caco-2 [12]	0	–
Caco-2 [14]	–	> 10000
Calu-3 [11]	0	–
Calu-3 [18]	–	> 10000
HepG2 [8]	0	–
HepG2 [16]	–	> 10000
U2OS [9]	0	–
U2OS [13]	–	> 10000
Vero E6 [10]	0	–
Vero E6 [17]	–	> 10000
